From PMC7926980, “The Antiproliferative and Apoptotic Effect of a Novel Synthesized S-Triazine Dipeptide Series, and Toxicity Screening in Zebrafish Embryos” (Molecules, 2021)

Legend:
zebrafish embryos [1] = assay: Zebrafish embryo imaging (morphology, teratogenicity); assay type: in vivo; details: 10 µM, embryos at 48 hpf
Source text: The treated embryos had cardiac edema, craniofacial defects, tail lesions, and a delay in embryonic development. These observations are consistent with the findings in the literature.
A Zeiss Observer D1 inverted microscope using Zeiss ZEN software was used to capture the images of the live zebrafish embryos.
Figure 6 Representative images of the zebrafish embryos 48 hpf (A) control or (B) treated.

MCF-7 cells = assay: MTT cell viability assay, MCF-7; assay type: cell-based, human; details: Homo sapiens, MCF7, 72 h, 72 h treatment
Protocol: (§1) The antiproliferative activity of the synthesized compounds was evaluated by the 3-(4,5-dimethylthiazol-2-yl)-2,5-diphenyl tetrazolium bromide (MTT) cell viability assay. Two types of breast cancer cell lines—namely MCF-7, which has estrogen and progesterone receptors, and MDA-MB-231, which is triple negative—were used, in addition to a colon cancer cell line (HCT-116).
(§2) The target products 3a–o were evaluated for their antiproliferative activity using the MTT viability assay of the MCF-7, MDA-MB-231 and HCT-116 cell lines (in triplicate) on at least three independent occasions for the determination of the reported mean values.
(§3) The three human tumor cell lines MCF-7, MDA-MB-231 and HCT-116 were cultured in Dulbecco’s Modified Eagle’s Medium (DMEM) with 10% fetal bovine serum, 2 mM L-glutamine and 100 µg/mL penicillin/streptomycin. The cells were maintained at 37 °C in 5% CO2 in a humidified incubator. All of the cells were sub-cultured 3 times/week by trypsinization using TrypLE Express (1×).
(§4) In order to calculate the relative IC50 values, the antiproliferative effect of compounds 3a–o was tested in three cancer cell lines (MCF-7, MDA-MB-231, HCT-116) and normal epithelial embryonic kidney cells (HEK-293) using the MTT viability assay. The cells were seeded in 96-well plates at a density of 10 × 10^3 cells/mL, in a total volume of 200 µL per well. In total, 0.1% DMSO was used as a vehicle control. […] The culture medium was then removed, and the cells were washed with phosphate-buffered saline (PBS), and 100 µL MTT was added (for a final concentration of 5 mg/mL MTT). The cells were incubated for 4 h in darkness at 37 °C. Next, 200 µL DMSO was added to each well, and the cells were maintained at room temperature in darkness for 20 min. The absorbance was detected with a microplate reader at 570 nm. The results were expressed as a percentage of viability relative to the vehicle control (100%). The dose-response curves were plotted, and the IC50 values were obtained using Prism software (GraphPad Software, Inc., La Jolla, CA, USA). All of the experiments were repeated in three independent experiments.

MDA-MB-231 cells = assay: MTT cell viability assay, MDA-MB-231; assay type: cell-based; details: Homo sapiens, 72 h treatment
Protocol: as §1, §2, §3, §4

[2] = Zebrafish embryo mortality/toxicity; assay type: in vivo; details: wild-type, in vivo; zebrafish embryos, overnight exposure, 0.5 to 1000 µM; mean of three biological replicates ± standard deviation
Protocol: (§5) The zebrafish embryos were obtained by natural pairwise breeding, and were treated essentially as described previously.
(§6) The compounds were dissolved in dimethylsulfoxide (DMSO) in order to prepare a stock concentration of 10 mM. The embryos treated with 0.10% DMSO (v/v) served as the negative controls.
(§7) The fish were kept following the national and international guidelines for the care and use of laboratory animals. The fertilized eggs were obtained by the natural pairwise breeding of adult fish. The approval of the Ethics Committee for the use and care of laboratory animals was not needed, as zebrafish larvae less than 5 days post fertilization were used.
(§8) A stock solution of 50 mM was prepared by dissolving the compounds in dimethyl sulfoxide (DMSO). At least 30 fertilized eggs were sorted and placed in 60-mm sterile glass Petri dishes. A serial dilution of the compounds was prepared by adding the required amount of the compound directly into 5 mL water, and the zebrafish embryos were then exposed to serial dilutions (0.5 to 1000 µM) of each compound overnight. The number of dead and living embryos were counted after the overnight exposure.

HCT-116 cells = assay: MTT cell viability assay, HCT-116; assay type: cell-based; details: Homo sapiens, 72 h treatment
Protocol: as §1, §2, §3, §4

zebrafish embryos [3] = assay: Zebrafish embryo mortality/toxicity; assay type: in vivo; details: maximum concentration tested 1 mM, versus DMSO control
Protocol: as §5, §6, §7, §8

CC/C(=C(\c1ccccc1)c1ccc(OCCN(C)C)cc1)c1ccccc1 [Tamoxifen, reference compound]
teratogenic effect in zebrafish embryos (zebrafish embryos [1]): severe teratogenic effect

COC(=O)C(C)NC(=O)CNc1nc(Nc2ccc(Cl)cc2)nc(N2CCOCC2)n1 (stereo not drawn) [Compound 3e, Methyl (4-((4-chlorophenyl)amino)-6-morpholino-1,3,5-triazin-2-yl) glycylalaninate]
IC50 (MCF-7 cells): 4.35 ± 2.86 µM | IC50 (MDA-MB-231 cells): 8.2 ± 1.68 µM | LC50 [2]: 2.37 ± 0.27 µM | IC50 (HCT-116 cells): > 50 µM

COC(=O)CNC(=O)CNc1nc(Nc2ccccc2)nc(N2CCCCC2)n1 [Compound 3h, Methyl (4-(phenylamino)-6-(piperidin-1-yl)-1,3,5-triazin-2-yl) glycylglycinate]
IC50 (MCF-7 cells): 19.64 ± 0.08 µM | IC50 (MDA-MB-231 cells): > 50 µM | LC50 [2]: 10.1 ± 0.43 µM | IC50 (HCT-116 cells): 15.2 ± 2.04 µM

COC(=O)CNC(=O)CCNc1nc(Nc2ccc(Cl)cc2)nc(N2CCOCC2)n1 [Compound 3m, Methyl (3-((4-((4-chlorophenyl)amino)-6-morpholino-1,3,5-triazin-2-yl)amino)propanoyl) glycinate]
IC50 (MCF-7 cells): 19.7 ± 1.48 µM | IC50 (MDA-MB-231 cells): 26.7 ± 1.32 µM | LC50 [2]: 5.58 ± 0.95 µM | IC50 (HCT-116 cells): > 50 µM

COC(=O)C(C)NC(=O)CNc1nc(Nc2ccc(Cl)cc2)nc(N2CCCCC2)n1 (stereo not drawn) [Compound 3l, Methyl (4-((4-chlorophenyl)amino)-6-(piperidin-1-yl)-1,3,5-triazin-2-yl) glycylalaninate]
IC50 (MCF-7 cells): 1.46 ± 0.69 µM | IC50 (MDA-MB-231 cells): 8.31 ± 0.69 µM | LC50 [2]: 4.25 ± 0.38 µM | IC50 (HCT-116 cells): 7.06 ± 0.27 µM

COC(=O)C(NC(=O)CCNc1nc(Nc2ccc(Cl)cc2)nc(N2CCOCC2)n1)C(C)C (stereo not drawn) [Compound 3n, Methyl (3-((4-((4-chlorophenyl)amino)-6-morpholino-1,3,5-triazin-2-yl)amino)propanoyl) valinate]
IC50 (MCF-7 cells): 2.35 ± 1.06 µM | IC50 (MDA-MB-231 cells): 8.48 ± 1.71 µM | LC50 [2]: 5.84 ± 1.09 µM | IC50 (HCT-116 cells): 14.4 ± 1.37 µM

COC(=O)C(NC(=O)CNc1nc(Nc2ccc(Cl)cc2)nc(N2CCOCC2)n1)C(C)C (stereo not drawn) [Compound 3g, Methyl (4-((4-chlorophenyl)amino)-6-morpholino-1,3,5-triazin-2-yl) glycylvalinate]
IC50 (MCF-7 cells): 13.2 ± 0.6 µM | IC50 (MDA-MB-231 cells): 24.1 ± 2.61 µM | LC50 [2]: 132.1 ± 0.86 µM | IC50 (HCT-116 cells): 12.2 ± 1.74 µM

COC(=O)CNC(=O)CNc1nc(Nc2ccc(OC)cc2)nc(N2CCCCC2)n1 [Compound 3j, Methyl (4-((4-methoxyphenyl)amino)-6-(piperidin-1-yl)-1,3,5-triazin-2-yl) glycylglycinate]
IC50 (MCF-7 cells): 25.3 ± 2.75 µM | IC50 (MDA-MB-231 cells): > 50 µM | LC50 [2]: 80.15 ± 0.59 µM | IC50 (HCT-116 cells): 23.4 ± 3.43 µM

COC(=O)CNC(=O)CNc1nc(Nc2ccc(OC)cc2)nc(N2CCOCC2)n1 [Compound 3c, Methyl (4-((4-methoxyphenyl)amino)-6-morpholino-1,3,5-triazin-2-yl) glycylglycinate]
IC50 (MCF-7 cells): 13.5 ± 1.01 µM | IC50 (MDA-MB-231 cells): > 50 µM | LC50 [2]: > 1000 µM | toxicity / mortality in zebrafish embryos (zebrafish embryos [3]): did not show any toxicity | IC50 (HCT-116 cells): > 50 µM

COC(=O)C(C)NC(=O)CNc1nc(Nc2ccc(OC)cc2)nc(N2CCOCC2)n1 (stereo not drawn) [Compound 3f, Methyl (4-((4-methoxyphenyl)amino)-6-morpholino-1,3,5-triazin-2-yl) glycylalaninate]
IC50 (MCF-7 cells): 8.02 ± 0.5 µM | IC50 (MDA-MB-231 cells): 28.1 ± 1.07 µM | LC50 [2]: 28.4 ± 1.18 µM | IC50 (HCT-116 cells): > 50 µM

COC(=O)C(C)NC(=O)CNc1nc(Nc2ccccc2)nc(N2CCOCC2)n1 (stereo not drawn) [Compound 3d, Methyl (4-morpholino-6-(phenylamino)-1,3,5-triazin-2-yl) glycylalaninate]
IC50 (MCF-7 cells): 3.57 ± 0.81 µM | IC50 (MDA-MB-231 cells): 16.2 ± 0.63 µM | LC50 [2]: > 1000 µM | toxicity / mortality in zebrafish embryos (zebrafish embryos [3]): did not show any toxicity | IC50 (HCT-116 cells): > 50 µM

COC(=O)C(NC(=O)CCNc1nc(Nc2ccc(Cl)cc2)nc(N2CCCCC2)n1)C(C)C (stereo not drawn) [Compound 3o, Methyl (3-((4-((4-chlorophenyl)amino)-6-(piperidin-1-yl)-1,3,5-triazin-2-yl)amino)propanoyl) valinate]
IC50 (MCF-7 cells): 4.64 ± 1.58 µM | IC50 (MDA-MB-231 cells): 15.7 ± 2.21 µM | LC50 [2]: 1.97 ± 0.27 µM | IC50 (HCT-116 cells): 18.9 ± 2.82 µM

COC(=O)C(C)NC(=O)CNc1nc(Nc2ccccc2)nc(N2CCCCC2)n1 (stereo not drawn) [Compound 3k, Methyl (4-(phenylamino)-6-(piperidin-1-yl)-1,3,5-triazin-2-yl) glycylalaninate]
IC50 (MCF-7 cells): 15.3 ± 2.49 µM | IC50 (MDA-MB-231 cells): 13.3 ± 1.12 µM | LC50 [2]: 5.98 ± 0.53 µM | IC50 (HCT-116 cells): > 50 µM

COC(=O)CNC(=O)CNc1nc(Nc2ccc(Cl)cc2)nc(N2CCOCC2)n1 [Compound 3b, Methyl (4-((4-chlorophenyl)amino)-6-morpholino-1,3,5-triazin-2-yl) glycylglycinate]
IC50 (MCF-7 cells): 6.18 ± 0.46 µM | IC50 (MDA-MB-231 cells): > 50 µM | LC50 [2]: > 1000 µM | toxicity / mortality in zebrafish embryos (zebrafish embryos [3]): did not show any toxicity | IC50 (HCT-116 cells): > 50 µM

COC(=O)CNC(=O)CNc1nc(Nc2ccc(Cl)cc2)nc(N2CCCCC2)n1 [Compound 3i, Methyl (4-((4-chlorophenyl)amino)-6-(piperidin-1-yl)-1,3,5-triazin-2-yl) glycylglycinate]
IC50 (MCF-7 cells): 8.37 ± 0.77 µM | IC50 (MDA-MB-231 cells): 22.3 ± 1.87 µM | LC50 [2]: 6.22 ± 0.39 µM | IC50 (HCT-116 cells): 18.5 ± 1.45 µM
